In publication PMC3413639 (PLoS ONE, 2012):
Where two headings read alike, the source gives them in different places.

Key:
5-HT1A receptors [1] = target: T1, 5-HT1A receptors (Rattus norvegicus, UniProt P19327); assay: [11C]WAY-100635-PET of rats treated with 5,7-DHT, a toxicant for 5-HT neurons; settings: 150 µg into right lateral ventricle, scan more than 2 weeks later
T1 sequence (P19327 1-422): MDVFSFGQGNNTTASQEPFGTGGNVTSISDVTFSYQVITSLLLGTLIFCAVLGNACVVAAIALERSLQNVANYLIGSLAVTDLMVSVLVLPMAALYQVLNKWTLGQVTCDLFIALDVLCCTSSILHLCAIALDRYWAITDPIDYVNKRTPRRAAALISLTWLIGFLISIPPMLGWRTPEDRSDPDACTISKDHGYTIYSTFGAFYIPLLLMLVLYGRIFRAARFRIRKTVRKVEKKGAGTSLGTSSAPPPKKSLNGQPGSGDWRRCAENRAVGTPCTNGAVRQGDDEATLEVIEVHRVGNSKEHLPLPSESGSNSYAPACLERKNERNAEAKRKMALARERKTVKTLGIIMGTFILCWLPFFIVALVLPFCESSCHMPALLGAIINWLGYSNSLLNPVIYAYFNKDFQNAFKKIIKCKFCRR

5-HT1A receptors [2] = target: T1, 5-HT1A receptors; assay: Autoradiographic [35S]GTPγS binding in rat brain sections; assay type: biochemical; design: Twenty-micrometer-thick frozen brain sections were preincubated; from tissue; host or cells: rat brain (hippocampus and raphe nucleus): frozen sections or living animals
Protocol: Autoradiographic procedures were performed as described previously, with some modifications. The sections were preincubated for 15 min in 50 mM 4-(2-hydroxyethyl)-1-piperazineethanesulfonic acid (HEPES; pH 7.4) containing 10 mM NaCl, 3 mM MgCl2 and 0.2 mM ethylene glycol tetraacetic acid. A second preincubation using the same buffer containing 2 mM GDP was performed for 15 min. The sections were subsequently incubated in the same buffer containing 2 mM GDP, 0.2 mM dithiothreitol and 0.04 nM [^35S]GTPγS for 120 min. Basal [^35S]GTPγS binding was defined in the absence of test drugs. […] Nonspecific binding was estimated using 10 µM nonradioactive GTPγS. The incubation was terminated by ice-cold 50 mM HEPES (pH 7.0). The sections were desalted with ice-cold distilled water, dried, and placed in contact with an imaging plate for 2 days. Signal detection and image analysis were performed as described above.

5-HT1A receptors [3] = target: T1, 5-HT1A receptors; assay: [11C]WAY-100635-PET, BPND and 5-HT1A receptor occupancy; assay type: in vivo; design: Twenty-micrometer-thick frozen brain sections were preincubated; from tissue; host or cells: rat brain (hippocampus and raphe nucleus): frozen sections or living animals; settings: for BPND Hippocampus / BPND Raphe: [11C]WAY-100635; for receptor occupancy at 3 mg/kg / ED50 / receptor occupancy at 1 mg/kg / receptor occupancy at 10 mg/kg / receptor occupancy at 30 mg/kg: rat, ip; for ED50: read-out: ED50 (5-HT1A receptor occupancy), intraperitoneal, PET
Protocol: All PET scans were carried out using a microPET Focus 220 scanner (Siemens Medical Solutions USA, Knoxville, TN). The rats were anesthetized with 1.5–2% isoflurane in air (2 L/min flow rate). […] All list-mode data were stored into 3D sinograms, which were then Fourier-rebinned into 2D sinograms (26 frames: 4×1, 8×2, and 14×5 min). Images were reconstructed using 2D-filtered back-projection with a 0.5-mm Hanning filter. All PET images were manually coregistered to the MRI template by spatial translation and rotation of original PET images without geometric expansion and contraction. ROIs were placed on the hippocampus and raphe nucleus using PMOD® image analysis software (PMOD Group, Zurich, Switzerland) with reference to the MRI template. Fine-tuning of the location of ROIs was then performed based on PET images at an early phase (0–30 min) of the scan in order to compensate for small mismatches between coregistered PET and MR images. The cerebellum was used as reference tissue because of its negligible density of 5-HT1A receptors.

5-HT1A receptors [4] = target: T1, 5-HT1A receptors; assay: In vitro ARG, inhibition of [11C]WAY-100635 binding in rat brain sections; design: Twenty-micrometer-thick frozen brain sections were preincubated; from tissue; host or cells: rat brain (hippocampus and raphe nucleus): frozen sections or living animals; settings: hippocampus and raphe nucleus; up to 1000 nM
Protocol: Rats were sacrificed by decapitation. Twenty-micrometer-thick frozen brain sections were preincubated for 30 min in 50 mM Tris-HCl (pH 7.4) containing 1 mM MnCl2. […] Subsequently, the sections were rinsed twice with ice-cold Tris-HCl buffer for 5 min and then desalted with ice-cold distilled water for 10 sec. These samples were warmly blow-dried and placed in contact with an imaging plate (Fuji Film, Tokyo, Japan) for 60 min. Signals on the imaging plate were detected by BAS5000 system (Fuji Film).

[5] = rats; cited from earlier work
5-HT1A receptors [6] = target: T1, 5-HT1A receptors; assay: Ex vivo ARG, 5-HT1A receptor occupancy after drug administration; assay type: in vivo; design: Twenty-micrometer-thick frozen brain sections were preincubated; from tissue; host or cells: rat brain (hippocampus and raphe nucleus): frozen sections or living animals; settings: for ED50: rat, ip, read-out: ED50 (5-HT1A receptor occupancy), intraperitoneal, ex vivo ARG
Protocol: Animals were then killed by decapitation 5 h and 30 min after their administration, respectively. Autoradiographic analysis was performed using procedures similar to in vitro ARG except for incubation temperature (37°C) and times for preincubation (30 sec), incubation (5 min) and rinsing (1 min). […] The doses of these drugs at half-maximal effect (ED50) were determined according to the following relationship: [drawing 2] where D is the dose of the drug.

[7] = humans; cited from earlier work
5-HT1A receptors [8] = settings: maximal safe dose; cited from earlier work
[9] = 1 mg/kg intraperitoneal, about 30 min before scan, mean ± S.E.
[10] = 3 mg/kg intraperitoneal + 30 mg/kg fluvoxamine (FLV) oral 30 min before pindolol, mean ± S.E.
[11] = 3 mg/kg intraperitoneal, about 30 min before scan, mean ± S.E.
[12] = 10 mg/kg intraperitoneal, about 30 min before scan, mean ± S.E.
[13] = 30 mg/kg intraperitoneal, about 30 min before scan, mean ± S.E.
[14] = read-out: Occupancy (%) Hippocampus

Compound: NCCc1c[nH]c2c(O)cc(O)cc12 [5,7-DHT, 5,7-dihydroxytryptamine, reference compound]
- BPND for [11C]WAY-100635 after toxicant treatment (5-HT1A receptors [1]; hippocampus): almost unchanged
- BPND for [11C]WAY-100635 after toxicant treatment (5-HT1A receptors [1]; raphe nucleus): profoundly decreased

Compound: CCCN(CCC)C1CCc2cccc(O)c2C1 (stereo not drawn) [8-OH-DPAT, 8-hydroxy-2-(di-n-propylamino) tetralin]
- [35S]GTPγS binding (5-HT1A receptors [2]; hippocampus and raphe nucleus, addition of agonist): enhanced
- [35S]GTPγS binding compared with 1 µM WAY-100635 (5-HT1A receptors [2]; raphe nucleus, 1 µM, p<0.01): significantly increased

Compound: CC(C)NCC(O)COc1cccc2[nH]ccc12 (stereo not drawn) [Pindolol, reference compound]
- BPND Hippocampus (5-HT1A receptors [3]; [9]): 4.787±0.676
- BPND Raphe (5-HT1A receptors [3]; [9]): 1.129±0.164
- BPND Hippocampus (5-HT1A receptors [3]; [10]): 3.670±0.315
- BPND Raphe (5-HT1A receptors [3]; [10]): 0.783±0.178
- BPND Hippocampus (5-HT1A receptors [3]; [11]): 3.517±0.119
- BPND Raphe (5-HT1A receptors [3]; [11]): 0.752±0.093
- BPND Hippocampus (5-HT1A receptors [3]; [12]): 2.190±0.757
- BPND Raphe (5-HT1A receptors [3]; [12]): 0.459±0.153
- BPND Raphe (5-HT1A receptors [3]; 30 mg/kg intraperitoneal + 30 mg/kg fluvoxamine (FLV) oral 30 min before pindolol): 0
- BPND Hippocampus (5-HT1A receptors [3]; 30 mg/kg intraperitoneal + 30 mg/kg fluvoxamine (FLV) oral 30 min before pindolol, mean ± S.E.): 0.343±0.065
- BPND Hippocampus (5-HT1A receptors [3]; [13]): 0.441±0.173
- BPND Raphe (5-HT1A receptors [3]; [13]): 0.029±0.029
- receptor occupancy at 3 mg/kg (5-HT1A receptors [3]; read-out: Difference in occupancy between hippocampus and raphe nucleus): ~50%
- ED50 (5-HT1A receptors [3]; hippocampus): 5.6 mg/kg
- ED50 (5-HT1A receptors [3]; raphe nucleus): 2.4 mg/kg
- receptor occupancy at 1 mg/kg (5-HT1A receptors [3]; [14]): 15 ± 11.8%
- receptor occupancy at 3 mg/kg (5-HT1A receptors [3]; [14]): 37 ± 5.6%
- receptor occupancy at 10 mg/kg (5-HT1A receptors [3]; [14]): 58.1 ± 18.4%
- receptor occupancy at 30 mg/kg (5-HT1A receptors [3]; [14]): 91.8 ± 3.4%
- receptor occupancy at 1 mg/kg (5-HT1A receptors [3]; read-out: Occupancy (%) Raphe): 33.7 ± 14.5%
- receptor occupancy at 3 mg/kg (5-HT1A receptors [3]; read-out: Occupancy (%) Raphe): 57.3 ± 2.8%
- receptor occupancy at 10 mg/kg (5-HT1A receptors [3]; read-out: Occupancy (%) Raphe): 69.6 ± 14.6%
- receptor occupancy at 30 mg/kg (5-HT1A receptors [3]; read-out: Occupancy (%) Raphe): 98.3 ± 1.7%
- Blockage of 5-HT1A receptors by excess amounts of drug (5-HT1A receptors [4]): near-complete blockage
- Proportion of protein-bound drug in plasma or serum [5]: 52%
- Slight increase in [35S]GTPγS binding (5-HT1A receptors [2]; high concentrations, hippocampus and raphe nucleus, p>0.05): not statistically significant
- 5-HT1A receptor binding (occupancy), dose-dependent up to (5-HT1A receptors [6]; intraperitoneal, 30 min after administration, irrespective of region): ~70%
- ED50 (5-HT1A receptors [6]; hippocampus): 8.5 mg/kg
- ED50 (5-HT1A receptors [6]; raphe nucleus): 7.3 mg/kg
- Proportion of protein-bound drug in plasma or serum [7]: 57%
- Occupancy of 5-HT1A autoreceptors (5-HT1A receptors [8]): 60%

Compound: COCCCC/C(=N\OCCN)c1ccc(C(F)(F)F)cc1 [fluvoxamine, reference compound]
- Effect on 5-HT1A receptor occupancies by pindolol (5-HT1A receptors [3]; 30 mg/kg oral, 30 min before pindolol treatment): had no effect
